# From article PMC4323000 (Oncotarget, 2015)
# Like-named read-outs stand apart in the source and are kept apart here.
# Legend:
# ABCG2 [1] = conditions: cited from earlier work
# [2] = human; GF120918 oral; ref [13],[21],[35],[45]–[48] (GF120918), [26],[50],[51] (Telatinib); cited from earlier work
# [3] = oral; ref per compound in Table 2; cited from earlier work
# [4] = tested on: ABCG2-overexpressing tumors; conditions: cited from earlier work; for In vivo Impact on Tumor growth: ref per compound in Table 2
# [5] = design: method as in PMID 23150210; conditions: P.O.; ref [25]; cited from earlier work
# [6] = Solubility for experimental formulation; type: physicochemical
# Method: The experimental formulation of MBL-II-141 was determined according to its solubility properties.
# ABCC1 = conditions: mitoxantrone or calcein as substrates; cited from earlier work
# SCID mice = test: MBL-II-141 tolerance assay; type: in vivo
# ABCG2 [7] = conditions: cited from earlier work; remark: listed apart in the source
# HEK293 cells = conditions: at 100 μM; cited from earlier work
# HEK293-pcDNA3.1 cells = conditions: at 100 μM; cited from earlier work
# HEK293-ABCG2 cells = conditions: at 100 μM; cited from earlier work
# HEK293 ABCG2 xenografts = test: Chemosensitization of well-established (8 mm) ABCG2-positive tumors; conditions: for slope of tumor growth: solvents 61 ± 3
# Excerpt: 1.10^6 HEK ABCG2 cells were sub-cutaneously injected into one flank of each SCID mouse, in solution with 30% matrigel. […] Each group contained 10 mice. The same protocol of treatment and follow-up were applied.
# Tumor growth curves were modeled with GraphPad© Software. Gaussian distribution models were obtained according to the equation Y = Amplitude*exp (−0.5*((X-Mean)/SD)^2). The amplitude was the height of the center of the distribution in Y units. Mean was the X value at the center of the distribution. SD was a measure of the width of the distribution, in the same units as X. Another model was applied for sum of two Gaussian distributions with Y = one + two (One = Amplitude 1*exp(−0.5*((X-Mean1)/SD1)^2) and Two = Amplitude 2*exp(−0.5*((X-Mean2)/SD2)^2)). Amplitudes were the heights of the center of the distribution in Y units. Means were the X values at the center of the two distributions. SDs were measures of the widths of the distributions, in the same units as X.
# The statistical test used was the paired t-test. It was applied for all data of growth tumor experiments and pharmacokinetics data.
# HEK-ABCG2 xenografts = test: Chemosensitization of just-established ABCG2-positive tumors
# Method: (§1) 4.10^6 HEK-pcDNA3.1 or HEK-ABCG2 cells were sub-cutaneously injected into one flank of each SCID mouse, in solution with 50% matrigel. After the apparition of most tumors, mice were randomly distributed into 4 groups of 20 animals (10 ABCG2 negative and 10 ABCG2-positive tumors). […] Two independent injections were carried out per mouse.
# (§2) Treatments were intraperitoneally administered three times a week until mice sacrifice. […] Finally, mice were sacrificed when the tumor diameter reached 17 mm.
# (§3) Growth models. Tumor growth curves were modeled with GraphPad© Software. Gaussian distribution models were obtained according to the equation Y = Amplitude*exp (−0.5*((X-Mean)/SD)^2). The amplitude was the height of the center of the distribution in Y units. Mean was the X value at the center of the distribution. SD was a measure of the width of the distribution, in the same units as X. Another model was applied for sum of two Gaussian distributions with Y = one + two (One = Amplitude 1*exp(−0.5*((X-Mean1)/SD1)^2) and Two = Amplitude 2*exp(−0.5*((X-Mean2)/SD2)^2)). Amplitudes were the heights of the center of the distribution in Y units. Means were the X values at the center of the two distributions. SDs were measures of the widths of the distributions, in the same units as X.
# (§4) Paired t-test. The statistical test used was the paired t-test. It was applied for all data of growth tumor experiments and pharmacokinetics data.
# HEK-pcDNA3.1 xenografts = test: Chemosensitization study, just-established ABCG2-negative tumors
# Method: as §1, §2, §3, §4
# [8] = MBL-II-141 oral absorption study (force-feeding versus IP); type: in vivo, mouse
# Method: The availability of MBL-II-141 was evaluated by force-feeding (n = 4), and compared to intraperitoneal injection (n = 4). CD1 mice were treated with 10 mg/kg of MBL-II-141. After 4 h of treatment, total blood was collected from animals treated with heparin. Samples were stored at −80°C until quantification.
# Assay accuracy was in the range of 91–108%. […] Results in tissues were normalized to cellular protein content.
# [9] = Pharmacokinetic study of MBL-II-141, CPT-11 and SN-38 (blood, liver, brain; LC-MS/MS)
# Method: In order to achieve possible cumulative effects, reiterated administrations (two or three) were carried out with a 4 h time interval between administrations. Blood samples were collected at either 1 h or 4 h after the last injection.
# Total blood samples were collected using dried heparinized syringes, avoiding modification of samples. Blood and plasma were stored at −80°C. […] Tissues were crushed using a dried cold system.
# Both assays were performed on a C18 column HypersilGold, (ThermoElectron), 3.0 μm, (100 mm × 2.1 mm i.d.). The mass spectrometry analysis was performed in positive ion mode with electrospray source. […] A volume of 50 μL of whole blood or tissue solution was introduced into a conic centrifuge and 50 μL of solution of the internal standard and 300 μL of cold acetonitrile were added. The sample was mixed and centrifuged for 10 min at 13000 g at 5°C. […] The residues were resuspended in 100 μL of mobile phase and 10 μL were injected into the HPLC device. […] When the concentration was over the upper standard concentration, a dilution of the sample was performed using blank whole blood or appropriate tissues. Peak area ratios of compound to the respective internal standard measured at each nominal concentration were used to construct weighted (1/concentration) least-square linear regression curves. […] Results in tissues were normalized to cellular protein content. Results in tissues were normalized to cellular protein content (C1600 Abott technology).
# [10] = combination MBL-II-141 10 mg/kg + CPT-11 20 mg/kg
# [11] = MBL-II-141 alone 10 mg/kg + PBS
# [12] = MBL-II-141 10 mg/kg IP, SCID mice
smiles,measurement,setting,value
CNC(=O)c1cc(COc2nnc(Nc3ccc(Cl)cc3)c3ccoc23)ccn1 [Telatinib],In vitro ABCG2 Specificity,ABCG2 [1]; ref per compound in Table 2,No
same,"In vivo Toxicity, Chronic",[2],>1 500 mg (human)
same,"In vivo Toxicity, Acute",[3],>15 mg/kg oral
same,In vivo Impact on Tumor growth,[4],Yes
same,effect on ABCG2-overexpressing tumors,"[4]; telatinib 15 mg/kg in combination with doxorubicin […], xenografted nude mouse model",significantly decrease the growth rate and tumor size
CNC(=O)c1cc(Oc2ccc(NC(=O)Nc3ccc(Cl)c(C(F)(F)F)c3)cc2)ccn1 [Sorafenib],In vitro ABCG2 Specificity,ABCG2 [1]; ref per compound in Table 2,No
same,"In vivo Toxicity, Acute",[3],> 25 mg/kg oral
same,"In vivo Toxicity, Chronic",[5],> 25 mg/kg P.O.
same,In vivo Impact on Tumor growth,[4],Yes
"COc1ccc2[nH]cc(CCNC(=O)c3cc(=O)c4c(OCc5ccc(Br)cc5)cccc4o3)c2c1 [MBL-II-141, 5-(4-bromobenzyloxy)-2-(2-(5-methoxyindolyl)ethyl-1-carbonyl)-4H-chromen-4-one]",maximal solubility in DMSO,[6],250 mg/mL
same,effect on ABCC1-mediated transport,ABCC1,without any effect
same,In vitro ABCG2 Specificity,ABCG2 [1]; MBL-II-141,Yes
same,acute toxicity in pilot study,SCID mice; 10 mg/kg per mouse,no acute toxicity
same,finding in the peritoneal cavity,SCID mice; 50 mg/kg 3 times a week for 1 month,slight deposit
same,"macroscopic analysis of organs (brain, heart, lungs, kidneys, liver and spleen)","SCID mice; 10, 30 or 50 mg/kg with CPT-11 20 mg/kg",no apparent lesions
same,"In vivo Toxicity, Acute","SCID mice; I.P., mice",> 50 mg/kg I.P.
same,"behavior (physical activity, appearance)","SCID mice; IP 10, 30 or 50 mg/kg in combination with CPT-11 20 mg/kg",did not show any modification in behavior
same,tolerance,"SCID mice; at 50 mg/kg, preliminary data",well tolerated
same,complete blood count proportion,"SCID mice; regardless of the administered dose of MBL-II-141 (10, 30, 50 mg/kg)",unchanged
same,safety on reiterated administrations,SCID mice; reiterated administrations,without any associated animal death or loss of weight
same,type of ABCG2 inhibition towards mitoxantrone,ABCG2 [7],non-competitive
same,IC50,"ABCG2 [7]; read-out: IC50, inhibition of ABCG2 (mitoxantrone efflux), substrate mitoxantrone",110 nM
same,cell death of HEK293 cells,HEK293 cells,less than 25%
same,cell survival,HEK293-pcDNA3.1 cells,75%
same,cell survival,HEK293-ABCG2 cells,60%
same,mice survival,HEK293 ABCG2 xenografts; [10],markedly increased
same,time at which tumors reached maximal size versus CPT-11 alone,HEK293 ABCG2 xenografts; [10],about two weeks later
same,slope of tumor growth,HEK293 ABCG2 xenografts; [10],41 ± 1 mm^3/day
same,"Mean of differences between tumor growth curves, Solvents versus MBL-II-141","HEK293 ABCG2 xenografts; paired t-test P (two tailed) < 0.0001, 95% CI 54.71 to 135.0",94.84
same,"Mean of differences between tumor growth curves, CPT-11 versus MBL-II-141 + CPT-11","HEK293 ABCG2 xenografts; paired t-test P (two tailed) < 0.0001, 95% CI 162.2 to 329.4",245.8
same,"Mean of differences between tumor growth curves, Solvents versus MBL-II-141 + CPT-11","HEK293 ABCG2 xenografts; paired t-test P (two tailed) < 0.0001, 95% CI 177.3 to 460.0",318.6
same,"Mean of differences between tumor growth curves, MBL-II-141 versus MBL-II-141 + CPT-11","HEK293 ABCG2 xenografts; paired t-test P (two tailed) < 0.0001, 95% CI 240.1 to 562.7",401.4
same,slope of tumor growth,HEK293 ABCG2 xenografts; single agent (MBL-II-141 10 mg/kg or CPT-11 20 mg/kg) three times a week,68 ± 3 mm^3/day
same,"Mean of differences between tumor growth curves, vehicles versus MBL-II-141 alone","HEK-ABCG2 xenografts; HEK-ABCG2, paired t-test P (two tailed) 0.015, 95% CI 16.93 to 138.1",77.51
same,ABCG2-positive tumors whose growth was completely blocked,"HEK-ABCG2 xenografts; MBL-II-141 10 mg/kg + CPT-11 20 mg/kg IP three times a week, freshly implanted tumors, SCID mice",90%
same,survival rate of mice bearing ABCG2-positive tumors,"HEK-ABCG2 xenografts; MBL-II-141 10 mg/kg + CPT-11 20 mg/kg, even 40 days after end of treatment",90%
same,inhibitory effect on growth of ABCG2-positive tumors,HEK-ABCG2 xenografts; [11],not observed
same,In vivo Impact on Tumor growth,"HEK-ABCG2 xenografts; with CPT-11, ABCG2-positive xenografts",Yes
same,"Mean of differences between tumor growth curves, vehicles versus MBL-II-141 alone","HEK-pcDNA3.1 xenografts; HEK-pcDNA3.1, paired t-test P (two tailed) 0.0006, 95% CI 171.0 to 512.9",342
same,effect on growth of ABCG2-negative tumors,HEK-pcDNA3.1 xenografts; [11],slight inhibitory effect
same,blood level at 4 h under force-feeding in comparison to IP route (lower),"[8]; 10 mg/kg, difference not significant",approximately 2 fold
same,"In vivo Toxicity, Acute","[8]; oral (force-feeding), mice",> 10 mg/kg oral
same,blood level after the third injection versus one or two injection(s),"[9]; 10 mg/kg IP, injections separated by 4 h, blood 1 h or 4 h after last injection",slight increase
same,"Brain/Plasma ratio, fold-change induced by the combination treatment",[9]; 30 min,1.1 fold-change
same,"Liver/Plasma ratio, fold-change induced by the combination treatment",[9]; 30 min,2.5 fold-change
same,"Brain/Plasma ratio, fold-change induced by the combination treatment",[9]; 60 min,0.3 fold-change
same,"Liver/Plasma ratio, fold-change induced by the combination treatment",[9]; 60 min,0.8 fold-change
same,"Brain/Plasma ratio, fold-change induced by the combination treatment",[9]; 120 min,0.4 fold-change
same,"Liver/Plasma ratio, fold-change induced by the combination treatment",[9]; 120 min,1.1 fold-change
same,"Brain/Plasma ratio, fold-change induced by the combination treatment",[9]; 240 min,3.0 fold-change
same,"Liver/Plasma ratio, fold-change induced by the combination treatment",[9]; 240 min,3.0 fold-change
same,level in total blood at 6 h,[9]; [12],below the detection limit
same,time of highest level in total blood,[9]; [12],0.5 h
same,distribution into the brain,"[9]; MBL-II-141 10 mg/kg IP, SCID mice, 10 mg/kg","low, but still detectable"
same,In vivo Impact on Pharmacokinetics,"[9]; of CPT-11, SCID mice",CPT-11: Yes
same,"Mean of differences in Brain levels, compound alone versus CPT-11 + MBL-II-141","[9]; paired t-test over time, P (two tailed): CPT-11 0.0416, MBL-II-141 0.1059",38.53
same,"Mean of differences in Blood levels, compound alone versus CPT-11 + MBL-II-141","[9]; paired t-test over time, P (two tailed): CPT-11 0.3616, SN-38 0.0299, MBL-II-141 0.1555",122.0
same,"Mean of differences in Liver levels, compound alone versus CPT-11 + MBL-II-141","[9]; paired t-test over time, P (two tailed): CPT-11 0.6878, SN-38 0.1727, MBL-II-141 0.1046",-39.78
